Laboratory results as given in patent US12036223B2, “Small molecule trail gene induction by normal and tumor cells as an anticancer therapy” (The Penn State Research Foundation, priority 2011, dated 2024).
Like-named read-outs stand apart in the source and are kept apart here.

Tests used:
HCT116 p53−/− xenograft = assay: HCT116 p53−/− subcutaneous xenograft; type: in vivo, athymic nu/nu mice; conditions: 3 doses on day 0, 3 and 6, TIC10 i.p.
Procedure: (§4) For subcutaneous xenografts, 4-6 week old female, athymic nu/nu mice (Charles River Laboratories) were inoculated with 1×10^6 cells (2.5×10^6 for T98G) of indicated cell lines in each rear flank as a 200 μL suspension of 1:1 Matrigel (BD):PBS. All intraperitoneal and intravenous injections were given at a total volume of 200 μL. […] Tumors were monitored using digital calipers at indicated time points. All subcutaneous tumors were allowed to establish for 1-4 weeks post-injection until reaching a volume of ˜125 mm^3 before treatment initiation. Relief of tumor burden was monitored for 3 weeks following disappearance of the tumor and confirmed by visual inspection after euthanasia.
(§5) Error bars indicate standard deviation (s.d.) of replicates. *P<0.05 and **P<0.005 between the indicated condition and control unless otherwise indicated.

[1] = Blood-brain barrier crossing; conditions: in vivo
HFF cells [2] = conditions: 5 μM, 72 hr
Procedure: (§1) For all flow cytometry analyses, floating and adherent cells were analyzed on a Coulter-Beckman Elite Epics cytometer. For surface TRAIL experiments, adherent cells were harvested by brief trypsinization, fixed in 4% paraformaldehyde in PBS for 20 min, incubated with an anti-TRAIL antibody for 2 hr (Abeam), washed and incubated with anti-rabbit Alexafluor 488 (Invitrogen) for 30 min, and analyzed. Cells were gated on forward and side scatter to eliminate debris and dead cells from the analysis. Surface TRAIL data is expressed as median fluorescence intensity relative to that of control samples unless indicated as otherwise. For Sub-G1 and cell cycle profile experiments, all cells were pelleted and ethanol fixed followed by staining with propidium iodide (Sigma) in the presence of RNAse. Cell viability assays were carried out in 96-well black-walled clear-bottom plates using CellTiter-Glo® (Promega) according to the manufacturer's protocols. Imaging and quantification of these assays were performed on an IVIS imaging system (Xenogen).

[3] = test system: freshly isolated GBM cells; conditions: temozolomide-resistant, previously irradiated, 72 hr
Procedure: as §1

[4] = Body weight and liver histology of treated mice; conditions: TIC10 100 mg/kg i.p. single dose; 25 mg/kg oral weekly for 4 weeks
Procedure: Tissue analyses. Mice were humanely sacrificed at indicated time points and excised normal tissue or tumors were fixed in 4% paraformaldehyde/PBS overnight at 4° C. If plasma samples were desired, 500 μL of blood was collected by terminal cardiac puncture under anesthesia in EDTA-Vacutainer tubes (BD). Serum samples were collected in a similar fashion but in microcentrifuge tubes followed by a 30 minute incubation at room temperature to allow for clotting. Serum was then removed following centrifugation for 5 minutes. Paraffin-embedded blocks, serial section slides, and hematoxylin and eosin staining were prepared according to standard procedures. TUNEL staining was performed using the ApopTag® Peroxidase In Situ Apoptosis Detection Kit (Millipore). For IHC analysis, slides were dewaxed in xylene and hydrated in a decreasing gradient of ethanol. Antigen retrieval was carried out by boiling in 10 mM citric acid (pH 6.0) for 6 min. Samples were blocked with streptavidin and biotin blocking solutions and goat serum (Vector Laboratories). Primary antibodies were incubated overnight at 4° C. in a humidity chamber. Incubation with biotinylated secondary antibody and DAB deposition was carried out according the manufacturer's protocol (Vector Laboratories DAB Substrate Kit for Peroxidase). […] Images were recorded on an Axioskop microscope using QCapture software (QImaging).

[5] = test system: TRAIL mRNA in HCT116 p53−/− cells; assay: RT-qPCR analysis of TRAIL mRNA levels; type: cell-based, human; conditions: 48 hr
Procedure: Total RNA was extracted using RNeasy Minikit (Qiagen) by following the manufacturer's instructions. cDNA was generated using SuperScript II (Invitrogen) with 1 μg of RNA and oligodT. […] PCR amplification was performed with the Applied Biosystems 7900HT Fast Real-time Detection System. Samples were standardized to 10 ng/μl and twenty ng of cDNA per sample was then utilized as a template for real-time PCR using a SYBR Green Master Mix (Qiagen Corp, USA). Samples were normalized to GAPDH used under identical conditions. Quantitation used the 2ΔΔCt method of crossing thresholds described in Livak et al., 2001, Methods. […] Reactions were performed in 384 well optical plates in a 7900HT instrument (Applied Biosystems), with 10 ul reaction volumes. Data analysis used the ABI PRISM 7900 Sequence Detection System 2.2 software. To exclude the possibility of genomic DNA contamination, control PCR reactions with no cDNA template and No-RT control samples were also performed for each gene-specific primer set. Quadruplicates of each PCR reaction were performed and the resultant data was averaged.

DLD-1 xenografts = assay: DLD-1 subcutaneous xenograft; conditions: single dose, 1 week post-treatment, TIC10 i.p., TRAIL i.v.
Procedure: as §4

HFF cells [6] = assay: Colony formation parallel experiment, HFF cells
Procedure: Indicated cell lines were plated at 500 cells per well and treated the following day in fresh complete media after adherence. At 3 days post-treatment, the media was replaced with drug-free media and cells were propagated for 10 days with fresh media given once every 3 days. At the end of the 10 day period, cells were washed in PBS, fixed with methanol, and stained with Coomassie blue, rinsed, and dried for quantification.
Error bars indicate standard deviation (s.d.) of replicates. […] Error bars indicate standard deviation (s.d.) of replicates.

SW480 xenograft = assay: SW480 subcutaneous xenograft; type: in vivo, athymic nu/nu mice; conditions: single dose 30 mg/kg, intraperitoneal or oral delivery
Procedure: as §4

[7] = test system: pAkt and pERK in HCT116 p53−/− cells; assay: Western blot analysis of pAkt and pERK; type: cell-based, human; conditions: TIC10 2.5, 5, 10 μM, 72 hr, dose-dependent
Procedure: Western blot analysis was conducted as described in Wang, W. et al., PNAS 103, 11003-11008, 2006, using NuPAGE 4-12% Bis-Tris and visualized using Supersignal West Femto (Thermo Scientific) and X-ray film. Nuclear and cytoplasmic extracts were prepared using a cytoplasmic lysis buffer (10 mM HEPES, 10 mM KCl, and 2 mM MgCl2, 1 mM DTT) followed by a nuclear lysis buffer (20 mM HEPES, 420 mM NaCl, 1.5 mM MgCl2, 250 μM EDTA, 25% glycerol). For all lysis buffers, fresh protease inhibitor (Roche) and 1 mM sodium orthovanadate was added immediately prior to use.
TIC10-induced changes in regulators of Foxo3a such as IKK, Akt, and ERK were determined.
FIG. 61 is a graph showing time course of protein expression levels of TIC10-induced effects determined by densitometry of Western blots from replicate experiments as in FIG. 60 (n=3). Data is express relative to the control sample for each time point and normalized to Ran. TRAIL was quantified by flow cytometry as a parallel experiment (n=3).

cancer cell lines = assay: Colony formation assays, cancer cell lines; type: cell-based, human; conditions: 10 μM, 72 hr
[8] = test system: surface TRAIL in a panel of cancer cells; assay: Surface TRAIL by flow cytometry in cancer cell lines; type: cell-based, human; conditions: 72 hr, p53-independent
TRAIL [9] = conditions: TIC10 100 mg/kg i.v.
Procedure: (§2) Tissue analyses. […] Serum was then removed following centrifugation for 5 minutes.

TRAIL [10] = test system: TRAIL
Procedure: as §2
ELISA for TRAIL was carried out using the Quantikine® TRAIL/TNFSF10 kit according to the manufacturer's protocol (DTRL00, R&D systems, Minneapolis, MN). […] Absorbances were measured with a DTX 880 plate reader (Beckman Coulter).
(§3) Error bars indicate s.d. of replicates.

[11] = test system: MDA-MB-231 human breast cancer xenografts; assay: MDA-MB-231 subcutaneous xenograft; conditions: single doses, TIC10 i.p., TRAIL i.v.
Procedure: as §4, §5

[12] = test system: subcutaneous T98G xenografts; assay: T98G subcutaneous xenograft; type: in vivo, athymic nu/nu mice; conditions: single oral dose, 30 mg/kg
Procedure: TIC10 was tested in preclinical models of GBM as a monoagent and in combination with bevacizumab.

[13] = test system: intracecal HCT116 p53−/− tumors; conditions: multi-dose regimen, once a week
Procedure: Intracecal implantation was performed as described in Cespedes, M. V., et al., Am J Pathol, 2007, 170(3): p. 1077-1085.
FIG. 37 is a graph showing percent of cohorts with implanted with intracecal HCT116 p53^−/− tumors with evident tumors at the primary and distal sites at endpoint (n=5).
FIG. 38 is a graph showing body weight of mice at endpoint. Error bars indicate s.d. of replicates.

GBM cell lines = assay: Cell viability assays of GBM cell lines; type: cell-based, human; conditions: 72 hr post-treatment, p53-independent
Procedure: For all flow cytometry analyses, floating and adherent cells were analyzed on a Coulter-Beckman Elite Epics cytometer. […] Cells were gated on forward and side scatter to eliminate debris and dead cells from the analysis. […] Cell viability assays were carried out in 96-well black-walled clear-bottom plates using CellTiter-Glo® (Promega) according to the manufacturer's protocols. Imaging and quantification of these assays were performed on an IVIS imaging system (Xenogen).

[14] = test system: Eμ-Myc transgenic mice that spontaneously develop lymphoma; conditions: weekly oral TIC10 25 mg/kg during weeks 9-12 of age
Procedure: Near-infrared imaging of mice was carried out on a Pearl Impulse imaging system (LI-COR) following tail-vein injection of AngioSense® 680 (VisEn Medical, Woburn, MA) according to the manufacturer's protocols. 6 week old Eμ-myc mice were obtained from The Jackson Laboratory (B6.Cg-Tg(IghMyc)22Bri/J).
P value determined by log-rank test. For relative tumor volume plots, tumor size is expressed relative to the tumor size on day 0, which is defined as the day of treatment initiation.

[15] = Serum chemistry of C57/B6 mice treated weekly for 4 weeks
Procedure: For CBC/differential and serum chemistry assays, 1 mL of blood was harvested from anesthetized mice by terminal cardiac puncture of the left ventricle. For serum chemistry, 500 μL, was placed into a microfuge tube and allowed to clot for 30 minutes at room temperature followed by centrifugation. Serum was removed, centrifuged again to remove any further clots, and serum was submitted for analysis. For CBC/differentials, 500 μL of blood was collected into EDTA tubes and analyzed.

[16] = Pharmacokinetic analysis of TIC10 in plasma
Procedure: HPLC analysis was performed by absorbance detection at 239 nm on an Agilent 1200 series system (Agilent, Santa Clara, CA) using an Eclipse XDB-C18 column (Agilent) and a 100 μL injection loop. Isocratic elution at 1 mL/minute was carried out in 0.1% trifluoroacetic acid in dH2O. An acetonitrile (ACN) gradient was carried out for elution as 15-20% ACN at 0-5 minutes, 20-23% for 5-12 minutes, 25% for 12-18 minutes. […] For all plasma samples, blood was obtained by terminal cardiac puncture of the left ventricle and collected into EDTA tubes (BD). Samples were centrifuged at 500 g for 10 minutes. Plasma was deproteinated by the adding 30 μL of perchloric acid to 100 μL of samples, vortexed for 15 seconds, centrifuged for 2 minutes, and the supernatant was immediately injected into the HPLC. AUC was normalized to an internal serum peak with a retention time of 8.1 minutes. AUC data versus time was fit with a two-compartment open model with first order elimination from central compartment using the equation AUC=Ae^−αt+Be^−βt where t=time and A and B are the extrapolated concentrations at the initiation of the two phases (distribution and elimination). Half-lives calculated as t1/2α=0.693/α and t1/2β=0.693/β. Other equations used for calculation include CL=dose/AUC0-∞ and Vd=dose/(AUC0-∞Xβ).
Error bars represent standard error mean of replicates.

[17] = test system: SF767 intracranial tumors; assay: Overall survival of mice harboring SF767 intracranial tumors; type: in vivo, athymic nude mice; conditions: for Median Survival: TIC10 25 mg/kg oral, bevacizumab 10 mg/kg i.v.
Procedure: For intracranial xenografts, anesthetized athymic nude mice were implanted with 2×10^5 SF767 cells in a 25 μL suspension of serum- and antibiotic-free RPMI. The site of injection was a burr hole created 1 mm lateral to the midline of the skull and 1 mm anterior to the coronal suture. The injection was gradually administered over 5 minutes with a Hamilton syringe and the burr hole was sealed using bone wax. Tumor take was assessed by bioluminescent imaging 2 weeks following implantation. Bioluminescent imaging of tumors was carried out on an IVIS imaging system as described in Wang et al., 2003, PNAS 100:15095-15100.

HCT116 xenograft = assay: HCT116 xenograft, single oral dose titration; type: in vivo, athymic nu/nu mice; conditions: 25 mg/kg
Procedure: as §4, §5

[18] = test system: human TRAIL gene promoter in HCT116 Bax−/− cells; conditions: first 504 base pairs of the TRAIL promoter
Procedure: Bioluminescent high-throughput screening using the NCI diversity set II was carried out in HCT116 Bax^−/− cells that were stably cotransfected to express a firefly luciferase construct under transcriptional control of the first 504 base pairs of the TRAIL promoter upstream of the start of transcription of the human TRAIL gene. Compounds were tested at a working concentration of 20 nM, 200 nM, 500 nM, and 1 μM with bioluminescent assessment of transcriptional activity at 12, 24, 36, and 48 hours post-treatment.

[19] = test system: freshly resected colon tumor cells from a human patient; conditions: TIC10 0.6-20 μM
Procedure: as §1, §3

HCT116 cells = assay: Cell viability in HCT116 cells after 1 hr pre-incubation of agent at indicated temperatures; type: cell-based, human; conditions: TIC10 5 μM, 1 hr pre-incubation at indicated temperatures, 72 hr
HCT116 p53−/− cells = assay: Sub-G1 / cell cycle profile, HCT116 p53−/− cells; type: cell-based, human; conditions: 5 μM, 72 hr
Procedure: as §1

[20] = TRAIL protein / recombinant TRAIL, cited from earlier work
[21] = tumor-free mice, TIC10 100 mg/kg i.v.
[22] = serum, TIC10 25 mg/kg oral weekly for 4 weeks
[23] = 25 mg/kg intravenous, plasma, two-compartment model
[24] = female, C57/B6, mouse, in vivo, iv, 25 mg/kg
[25] = single dose at 2 weeks post-implantation

Cc1ccccc1CN1C(=O)C2=C(CCN(Cc3ccccc3)C2)N2CCN=C12 [TIC10]
effect on tumor (HCT116 p53−/− xenograft): tumor regression
blood-brain barrier crossing [1]: crosses the blood-brain barrier
cell cycle profile of normal fibroblasts (HFF cells [2]): without altering the cell cycle profiles
cytotoxicity in freshly isolated GBM cells [3]: cytotoxic effects
effects on body weight or liver histology [4]: no adverse effects on body weight or liver histology
TRAIL mRNA levels [5]: dose-dependent increase
effect on tumor (DLD-1 xenografts): tumor stasis
effect on normal fibroblasts in colony formation experiment (HFF cells [6]): sparing normal fibroblasts
effect on tumor (SW480 xenograft): sustained regression
pAkt and pERK levels [7]: abolished
clonogenic survival (cancer cell lines): decreased the clonogenic survival
TRAIL protein localized to the cell surface [8]: dose-dependent increase
TRAIL protein in normal tissues (IHC) (TRAIL [9]): upregulated at the protein level in the brain, kidney, and spleen
toxicity in normal tissues by histology and TUNEL staining (TRAIL [9]): without apparent toxicity
duration of sustained serum levels of secreted TRAIL (TRAIL [10]; after a single dose of TIC10): 3 to 4 days
duration of elevated serum levels of TRAIL (TRAIL [10]; [21]): greater than 72 hours
time at which serum TRAIL induced by TIC10 was detected following administration (TRAIL [10]; [21]): 2 h
effect on tumor [11]: regression
effect on tumor [12]: sustained regression
tolerability / body weight at endpoint [13]: well tolerated
GI50 (GBM cell lines): low micromolar range
prolongation of survival [14]: 4 weeks
changes in a panel of serum chemistry markers ([15]; oral TIC10 25 mg/kg weekly for 4 weeks, immuno-competent mice): did not cause any changes
Albumin [15, 22]: 2.9 g/dL
Alkaline phosphate [15, 22]: 112 ± 12 U/L
Blood urea nitrogen [15, 22]: 33.75 ± 7.3 mg/dL
Chloride [15, 22]: 104 mM
Creatinine [15, 22]: 0.15 ± .06 mg/dL
Lactate dehyrogenase [15, 22]: 287.5 ± 125 U/L
Potassium [15, 22]: 7.325 ± 3.2 mM
Sodium [15, 22]: 154.5 ± 5.2 mM
Total Protein [15, 22]: 4.97 ± .61 g/dL
Total bilirubin [15, 22]: 2.725 ± 2.4 mg/dL
t1/2α ([16]; 25 mg/kg intravenous, plasma): 2.82 min
t1/2β ([16]; 25 mg/kg intravenous, plasma): 385 min
α [16, 23]: 14.9 h⁻¹
β [16, 23]: 0.108 h⁻¹
AUC(0-inf) [16, 24]: 63.9 µM·h
Cmax [16, 24]: 44.2 µM
Tmax [16, 24]: 1.2 min
Vd [16, 24]: 9.39 L/kg
clearance [16, 24]: 16.8 mL/min/kg
Median Survival [17, 25]: 74 days
change in overall survival ([17]; single dose, intracranial xenograft of human GBM): doubled
ΔMedian Survival ([17]; versus control cohort, single dose at 2 weeks post-implantation): 46 days
effect on tumor (HCT116 xenograft): sustained anti-tumor efficacy
TRAIL promoter luciferase reporter activity [18]: induced TRAIL promoter-dependent transcriptional activity
cytotoxicity in primary colon cancer cells [19]: potent cytotoxic effects
thermal stability of cytotoxic activity (HCT116 cells): thermally stable
sub-G1 DNA content (HCT116 p53−/− cells): induced sub-G1 DNA content

TRAIL: Purified, recombinant TRAIL (TNF-related apoptosis-inducing ligand; Apo2L)
effect on tumor (DLD-1 xenografts): progressed
serum half-life [20]: 20 to 30 min
serum half-life ([20]; listed as recombinant TRAIL): ~30 min
effect on tumor [11]: progressed

bevacizumab [reference compound]
Median Survival [17, 25]: 70 days
